In the supplement of paper PMC12613149:

Tests used:
[1] = collision cross section (TIMS, N2 drift gas) of the primary ion; higher = larger gas-phase ion size
[2] = reversed-phase LC retention time (C18, 15 min MeOH gradient); higher = more hydrophobic / later elution
[3] = ionization mode: ESI+, ion species: [M+H]+
[4] = ionization mode: ESI-, ion species: [M-H]-
[5] = ionization mode: ESI+, ion species: [M]+

Row | Structure (SMILES) | collision cross section [1, 3] | reversed-phase LC retention time [2, 3] | collision cross section [1, 4] | reversed-phase LC retention time [2, 4] | collision cross section [1, 5] | reversed-phase LC retention time [2, 5]
1 | C[Si](Cn1cncn1)(c1ccc(F)cc1)c1ccc(F)cc1 [Flusilazole] | 176.25 Å² | 15.2 min | – | – | – | –
2 | Cc1nc(N(C)C)nc(OC(=O)N(C)C)c1C [Pirimicarb] | 156.34 Å² | 10.5 min | – | – | – | –
3 | CCCC(Cn1cncn1)c1ccc(Cl)cc1Cl (stereo unspecified) [Penconazole] | 166.33 Å² | 15.5 min | – | – | – | –
4 | Oc1ccc(C2(c3ccc(O)cc3)CCCCC2)cc1 [Bisphenol Z] | – | – | 173.12 Å² | 15.3 min | – | –
5 | Cc1c(N(C)C)c(=O)n(-c2ccccc2)n1C [Dimethylaminophenazone] | 151.98 Å² | 6.95 min | – | – | – | –
6 | NC(=O)N1c2ccccc2C=Cc2ccccc21 [Carbamazepine] | 150.05 Å² | 12.3 min | – | – | – | –
7 | C=C1C[C@@H]2[C@H](CC[C@]3(C)C(=O)CC[C@@H]23)[C@@]2(C)C=CC(=O)C=C12 [Exemestane] | 173.31 Å² | 13.9 min | – | – | – | –
8 | CC(=O)[C@H]1CC[C@H]2[C@@H]3C=CC4=CC(=O)CC[C@@]4(C)[C@@H]3CC[C@]12C [Dydrogesterone] | 177.44 Å² | 15.1 min | – | – | – | –
9 | CCCCOCCOP(=O)(OCCOCCCC)OCCOCCCC [Tri(butoxyethyl)phosphate] | 198.12 Å² | 16.7 min | – | – | – | –
10 | Fc1ccc(Oc2ccnc3cc(Cl)cc(Cl)c23)cc1 [Quinoxyfen] | 164.99 Å² | 17.1 min | – | – | – | –
11 | O=C(O)C(F)(F)C(F)(F)C(F)(F)C(F)(F)C(F)(F)C(F)(F)C(F)(F)C(F)(F)C(F)(F)C(F)(F)C(F)(F)F [Perfluorododecanoic acid] | – | – | 191.62 Å² | 17 min | – | –
12 | CCC(=O)O[C@]1(C(=O)CCl)[C@@H](C)C[C@H]2[C@@H]3CCC4=CC(=O)C=C[C@]4(C)[C@@]3(F)[C@@H](O)C[C@@]21C [Clobetasol propionate] | 207.98 Å² | 15.2 min | 210.25 Å² | 15.6 min | – | –
13 | CCC[C@@H]1C[C@@H](C(=O)N[C@@H]([C@H]2O[C@H](SC)[C@H](O)[C@@H](O)[C@H]2O)[C@@H](C)O)N(C)C1 [Lincomycin] | 202.11 Å² | 7.84 min | 197.99 Å² | 13.2 min | – | –
14 | Cc1cccc(C)c1N(Cn1cccn1)C(=O)C(=O)O [Metazachlor OA] | – | – | 162.14 Å² | 8.92 min | – | –
15 | O=S(=O)(O)c1ccccc1 [Benzenesulfonic acid] | – | – | 125.05 Å² | 2.42 min | – | –
16 | CCNS(=O)(=O)C(F)(F)C(F)(F)C(F)(F)C(F)(F)C(F)(F)C(F)(F)C(F)(F)C(F)(F)F [2-N-Ethylperfluorooctanesulfonamide] | – | – | 178.3 Å² | 17.6 min | – | –
17 | CC(Cc1ccc(C(C)(C)C)cc1)CN1CCCCC1 (stereo unspecified) [Fenpropidin] | 166.93 Å² | 13.6 min | – | – | – | –
18 | CCOP(=S)(OCC)SCSP(=S)(OCC)OCC [Ethion] | 176.99 Å² | 16.9 min | – | – | – | –
19 | CNC1(c2ccccc2Cl)CCCCC1=O (stereo unspecified) [Ketamine] | 149.17 Å² | 8.79 min | – | – | – | –
20 | O=C(O)Cc1ccc(S(=O)(=O)O)cc1 [(4-Sulfophenyl)acetic acid] | – | – | 135.07 Å² | 0.96 min | – | –
21 | Nc1ccccc1-c1ccccc1 [2-Aminobiphenyl] | 141.24 Å² | 12.8 min | – | – | – | –

Row | Structure (SMILES) | collision cross section [1, 3] | reversed-phase LC retention time [2, 3] | collision cross section [1, 4] | reversed-phase LC retention time [2, 4] | collision cross section [1, 5] | reversed-phase LC retention time [2, 5]
22 | CCCCCCCCCCCC[N+](C)(C)C [Dodecyltrimethylammonium] | – | – | – | – | 176.31 Å² | 15.2 min
23 | N#Cc1nn(-c2c(Cl)cc(C(F)(F)F)cc2Cl)c(N)c1S(=O)(=O)C(F)(F)F [Fipronil sulfone] | – | – | 178.27 Å² | 16.1 min | – | –
24 | COc1cc(NS(=O)(=O)c2ccc(N)cc2)nc(OC)n1 [Sulfadimethoxine] | 170.07 Å² | 9.96 min | 170.58 Å² | 6.81 min | – | –
25 | O=C(NCc1ncc(C(F)(F)F)cc1Cl)c1c(Cl)cccc1Cl [Fluopicolide] | 176.08 Å² | 14.4 min | – | – | – | –
26 | Oc1ccc(Cc2ccc(O)cc2)cc1 [Bisphenol F] | – | – | 152.1 Å² | 11.9 min | – | –
27 | O=C1CN(/N=C/c2ccc([N+](=O)[O-])o2)C(=O)N1 [Nitrofurantoin] | – | – | 149.37 Å² | 6.35 min | – | –
28 | c1ccc(Nc2cccc3ccccc23)cc1 [N-Phenyl-1-naphthylamine] | 153.28 Å² | 16.1 min | – | – | – | –
29 | Cc1cc(=O)[nH]c(C(C)C)n1 [2-Isopropyl-6-methyl-pyrimidin-4-ol] | 131.58 Å² | 7.51 min | – | – | – | –
30 | CN(C/C=C/C#CC(C)(C)C)Cc1cccc2ccccc12 [Terbinafine] | 187.34 Å² | 13.8 min | – | – | – | –
31 | COC(=O)C(c1ccccc1Cl)N1CCc2sccc2C1 (stereo unspecified) [Clopidogrel] | 170.12 Å² | 15.4 min | – | – | – | –
32 | O=P1(N(CCCl)CCCl)NCCCO1 (stereo unspecified) [Cyclophosphamide] | 147.43 Å² | 10.5 min | – | – | – | –
33 | O=C(NC(=O)c1c(F)cccc1F)Nc1ccc(Cl)cc1 [Diflubenzuron] | 163.34 Å² | 15.1 min | 167.93 Å² | 15.5 min | – | –
34 | CCN(CC)c1nc(=O)cc(C)[nH]1 [2-(Diethylamino)-6-methylpyrimidin-4-one] | 138.67 Å² | 7.54 min | – | – | – | –
35 | CC[N+](CC)(CC)CC [Tetraethylammonium] | – | – | – | – | 123.33 Å² | 1.03 min
36 | CCCCCCCCOc1ccc(C(=O)c2ccccc2)c(O)c1 [2-Hydroxy-4-(octyloxyl)benzophenone] | 193.92 Å² | 18.9 min | 193.31 Å² | 19.6 min | – | –
37 | Cc1cc(Cc2ccc(N)c(C)c2)ccc1N [4,4'-Methylene-bis(2-methyl aniline)] | 171.67 Å² | 8.47 min | – | – | – | –
38 | COc1ccc(C(=O)c2ccccc2)c(O)c1 [Benzophenone-3] | 148.22 Å² | 15.1 min | – | – | – | –
39 | CC(CN1c2ccccc2Sc2ccccc21)N(C)C (stereo unspecified) [Promethazin] | 164.06 Å² | 12.3 min | – | – | – | –
40 | CN/C(=N\[N+](=O)[O-])NCc1cnc(Cl)s1 [Clothianidin] | 153.61 Å² | 8.59 min | 150.63 Å² | 8.62 min | – | –
41 | c1ccc2[nH]c(-c3cscn3)nc2c1 [Thiabendazole] | 138.79 Å² | 8.08 min | – | – | – | –
42 | CCOC(=O)[C@H](CCc1ccccc1)N[C@@H](C)C(=O)N1CCC[C@H]1C(=O)O [Enalapril] | 187.31 Å² | 11.6 min | 193.85 Å² | 12.2 min | – | –

Row | Structure (SMILES) | collision cross section [1, 3] | reversed-phase LC retention time [2, 3] | collision cross section [1, 4] | reversed-phase LC retention time [2, 4] | collision cross section [1, 5] | reversed-phase LC retention time [2, 5]
43 | CCCC[N+]1(C)[C@H]2CC(OC(=O)C(CO)c3ccccc3)C[C@H]1[C@H]1O[C@H]12 (stereo partly specified) [Scopolamine-N-butyl] | – | – | – | – | 188.31 Å² | 9.85 min
44 | COc1ccc2c(c1)c(CC(=O)O)c(C)n2C(=O)c1ccc(Cl)cc1 [Indomethacin] | 182.58 Å² | 15.3 min | 188.5 Å² | 13.8 min | – | –
45 | O=C(Nc1ccc(F)cc1F)c1cccnc1Oc1cccc(C(F)(F)F)c1 [Diflufenican] | 189.49 Å² | 16.2 min | 181.03 Å² | 16.7 min | – | –
46 | O=C(O)COCCN1CCN(C(c2ccccc2)c2ccc(Cl)cc2)CC1 (stereo unspecified) [Cetirizine] | 200.88 Å² | 13.5 min | 195.01 Å² | 14.6 min | – | –
47 | CCCCNc1ccc(C(=O)OCCN(C)C)cc1 [Tetracain] | 173.87 Å² | 11.2 min | – | – | – | –
48 | CCc1cccc(C)c1N(C(=O)C(=O)O)C(C)C(=O)O (stereo unspecified) | – | – | 159.41 Å² | 7.53 min | – | –
49 | O=c1c2ccccc2[nH]c2ccccc12 [Acridone] | 136.53 Å² | 11.1 min | – | – | – | –
50 | O=C1CC2(CCCCC2)CN1 [Gabapentin-Lactam] | 135.35 Å² | 11.2 min | – | – | – | –
51 | CC(=O)Nc1ccc(O)cc1 [Acetaminophen] | 130.01 Å² | 5.38 min | – | – | – | –
52 | COC(=O)c1cc(C(=O)OC)cc(S(=O)(=O)O)c1 [Dimethyl-5-sulfoisophthalate] | – | – | 162.37 Å² | 8.33 min | – | –
53 | CN1CCCC(n2nc(Cc3ccc(Cl)cc3)c3ccccc3c2=O)CC1 (stereo unspecified) [Azelastine] | 189.23 Å² | 12.7 min | – | – | – | –
54 | COCC(=O)N(c1c(C)cccc1C(=O)O)C(C)C(=O)O (stereo unspecified) | – | – | 159.84 Å² | 5.43 min | – | –
55 | O=[N+]([O-])/N=C1\NCCN1Cc1ccc(Cl)nc1 [Imidacloprid] | 155.98 Å² | 8.67 min | 157.08 Å² | 8.7 min | – | –
56 | CCN(CC)c1ccccc1 [Diethylphenylamine] | 129.02 Å² | 6.93 min | – | – | – | –
57 | CC#Cc1cc(C)nc(Nc2ccccc2)n1 [Mepanipyrim] | 152.51 Å² | 14.6 min | – | – | – | –
58 | CCOP(=O)(OCC)OCC [Triethylphosphate] | 131.26 Å² | 10.7 min | – | – | – | –
59 | COc1cc2nc(N3CCNCC3)nc(N)c2cc1OC [6,7-Dimethoxy-2-(piperazin-1-yl)quinazolin-4-amine] | 172.06 Å² | 6.11 min | – | – | – | –
60 | CC(C)NCC(O)COc1cccc2ccccc12 (stereo unspecified) [Propanolol] | 162.88 Å² | 11.3 min | – | – | – | –
61 | COP(=S)(OC)Oc1c(Cl)cc(C)cc1Cl [Toclofos-methyl] | 151.78 Å² | 15.8 min | – | – | – | –
62 | CN(C)[C@@H]1C(O)=C(C(N)=O)C(=O)[C@@]2(O)C(O)=C3C(=O)c4c(O)cccc4[C@@](C)(O)[C@H]3[C@H](O)[C@@H]12 [Oxytetracycline] | 198.92 Å² | 8.42 min | – | – | – | –
